Data published in article PMC11864979, “First-in-class ultralong-target-residence-time p38α inhibitors as a mitosis-targeted therapy for colorectal cancer” (Nature Cancer, 2025).
Read-outs that look alike come from different tables or passages of the source.

Assays:
Assay in all cases: selectivity profiling in a panel of 340 wild-type kinases (Reaction Biology Europe)
Format in all cases: binding
340 wild-type kinases [1] = molecular target: T1, 340 wild-type kinases (Homo sapiens, UniProt P29323)
T1 construct: purchased Reaction Biology Europe
T1 sequence (P29323 19-1055): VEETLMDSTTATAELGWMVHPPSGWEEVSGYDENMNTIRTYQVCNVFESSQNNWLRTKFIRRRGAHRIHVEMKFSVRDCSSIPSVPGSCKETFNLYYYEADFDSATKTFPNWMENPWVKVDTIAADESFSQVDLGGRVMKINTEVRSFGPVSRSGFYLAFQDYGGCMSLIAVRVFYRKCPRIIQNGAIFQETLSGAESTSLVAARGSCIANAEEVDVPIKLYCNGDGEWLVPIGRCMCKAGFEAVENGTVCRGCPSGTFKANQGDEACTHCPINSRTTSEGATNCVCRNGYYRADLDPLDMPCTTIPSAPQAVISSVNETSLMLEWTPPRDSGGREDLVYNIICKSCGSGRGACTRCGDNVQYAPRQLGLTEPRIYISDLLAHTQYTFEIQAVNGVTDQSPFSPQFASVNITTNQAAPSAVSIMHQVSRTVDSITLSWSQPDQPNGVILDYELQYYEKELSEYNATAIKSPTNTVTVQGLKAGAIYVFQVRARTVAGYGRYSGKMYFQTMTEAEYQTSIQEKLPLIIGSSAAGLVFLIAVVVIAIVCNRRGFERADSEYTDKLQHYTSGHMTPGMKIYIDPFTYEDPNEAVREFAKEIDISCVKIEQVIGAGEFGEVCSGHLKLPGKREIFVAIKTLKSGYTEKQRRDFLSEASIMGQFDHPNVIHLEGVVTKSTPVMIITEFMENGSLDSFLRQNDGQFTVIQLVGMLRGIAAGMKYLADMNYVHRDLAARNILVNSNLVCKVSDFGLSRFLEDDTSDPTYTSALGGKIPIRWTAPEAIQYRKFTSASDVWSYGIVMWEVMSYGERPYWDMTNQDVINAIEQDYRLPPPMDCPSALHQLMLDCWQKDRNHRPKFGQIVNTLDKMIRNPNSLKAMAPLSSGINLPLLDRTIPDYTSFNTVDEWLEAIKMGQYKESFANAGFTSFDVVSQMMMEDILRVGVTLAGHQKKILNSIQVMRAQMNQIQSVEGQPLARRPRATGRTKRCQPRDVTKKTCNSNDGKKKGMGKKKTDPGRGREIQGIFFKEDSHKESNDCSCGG

340 wild-type kinases [2] = molecular target: T2, 340 wild-type kinases (Homo sapiens, UniProt P49761)
T2 construct: purchased Reaction Biology Europe

340 wild-type kinases [3] = molecular target: T3, 340 wild-type kinases (Homo sapiens, UniProt Q00534)
T3 construct: purchased Reaction Biology Europe

340 wild-type kinases [4] = molecular target: T4, 340 wild-type kinases (Homo sapiens, UniProt Q00535)
T4 construct: purchased Reaction Biology Europe

340 wild-type kinases [5] = molecular target: T5, 340 wild-type kinases (Homo sapiens, UniProt Q04759)
T5 construct: purchased Reaction Biology Europe

340 wild-type kinases [6] = molecular target: T6, 340 wild-type kinases (Homo sapiens, UniProt Q15746)
T6 construct: purchased Reaction Biology Europe

340 wild-type kinases [7] = molecular target: T7, 340 wild-type kinases (Homo sapiens, UniProt Q9Y3S1)
T7 construct: purchased Reaction Biology Europe

T2 sequence (P49761 whole entry): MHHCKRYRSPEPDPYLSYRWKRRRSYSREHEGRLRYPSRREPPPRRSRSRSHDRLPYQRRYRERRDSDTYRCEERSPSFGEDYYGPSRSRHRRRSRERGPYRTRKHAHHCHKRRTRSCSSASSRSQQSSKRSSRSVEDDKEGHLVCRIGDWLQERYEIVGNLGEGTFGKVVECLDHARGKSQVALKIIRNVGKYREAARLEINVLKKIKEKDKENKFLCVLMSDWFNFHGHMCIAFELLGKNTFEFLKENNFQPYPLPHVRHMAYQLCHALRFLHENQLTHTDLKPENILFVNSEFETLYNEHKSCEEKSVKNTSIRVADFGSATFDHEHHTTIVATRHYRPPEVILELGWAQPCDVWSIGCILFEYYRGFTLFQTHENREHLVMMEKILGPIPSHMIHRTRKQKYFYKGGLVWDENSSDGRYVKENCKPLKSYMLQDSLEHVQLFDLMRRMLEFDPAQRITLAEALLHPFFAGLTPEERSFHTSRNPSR
T3 sequence (Q00534 whole entry): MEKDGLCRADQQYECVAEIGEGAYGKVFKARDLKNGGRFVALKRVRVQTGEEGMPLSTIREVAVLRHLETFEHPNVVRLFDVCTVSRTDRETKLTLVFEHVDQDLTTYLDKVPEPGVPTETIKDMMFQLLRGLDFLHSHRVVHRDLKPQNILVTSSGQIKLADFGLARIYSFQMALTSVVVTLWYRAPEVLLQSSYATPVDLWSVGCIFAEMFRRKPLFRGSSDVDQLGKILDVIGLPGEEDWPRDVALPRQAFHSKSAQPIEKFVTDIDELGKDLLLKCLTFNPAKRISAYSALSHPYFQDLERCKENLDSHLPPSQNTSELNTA
T4 sequence (Q00535 whole entry): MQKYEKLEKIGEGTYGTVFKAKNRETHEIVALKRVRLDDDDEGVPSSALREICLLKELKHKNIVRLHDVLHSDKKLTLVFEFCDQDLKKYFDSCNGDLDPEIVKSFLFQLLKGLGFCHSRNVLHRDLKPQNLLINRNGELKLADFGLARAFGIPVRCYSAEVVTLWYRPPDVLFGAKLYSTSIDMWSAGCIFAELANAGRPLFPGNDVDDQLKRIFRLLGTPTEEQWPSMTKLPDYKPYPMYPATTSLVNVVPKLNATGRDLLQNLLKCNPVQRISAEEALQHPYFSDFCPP
T6 sequence (Q15746 whole entry): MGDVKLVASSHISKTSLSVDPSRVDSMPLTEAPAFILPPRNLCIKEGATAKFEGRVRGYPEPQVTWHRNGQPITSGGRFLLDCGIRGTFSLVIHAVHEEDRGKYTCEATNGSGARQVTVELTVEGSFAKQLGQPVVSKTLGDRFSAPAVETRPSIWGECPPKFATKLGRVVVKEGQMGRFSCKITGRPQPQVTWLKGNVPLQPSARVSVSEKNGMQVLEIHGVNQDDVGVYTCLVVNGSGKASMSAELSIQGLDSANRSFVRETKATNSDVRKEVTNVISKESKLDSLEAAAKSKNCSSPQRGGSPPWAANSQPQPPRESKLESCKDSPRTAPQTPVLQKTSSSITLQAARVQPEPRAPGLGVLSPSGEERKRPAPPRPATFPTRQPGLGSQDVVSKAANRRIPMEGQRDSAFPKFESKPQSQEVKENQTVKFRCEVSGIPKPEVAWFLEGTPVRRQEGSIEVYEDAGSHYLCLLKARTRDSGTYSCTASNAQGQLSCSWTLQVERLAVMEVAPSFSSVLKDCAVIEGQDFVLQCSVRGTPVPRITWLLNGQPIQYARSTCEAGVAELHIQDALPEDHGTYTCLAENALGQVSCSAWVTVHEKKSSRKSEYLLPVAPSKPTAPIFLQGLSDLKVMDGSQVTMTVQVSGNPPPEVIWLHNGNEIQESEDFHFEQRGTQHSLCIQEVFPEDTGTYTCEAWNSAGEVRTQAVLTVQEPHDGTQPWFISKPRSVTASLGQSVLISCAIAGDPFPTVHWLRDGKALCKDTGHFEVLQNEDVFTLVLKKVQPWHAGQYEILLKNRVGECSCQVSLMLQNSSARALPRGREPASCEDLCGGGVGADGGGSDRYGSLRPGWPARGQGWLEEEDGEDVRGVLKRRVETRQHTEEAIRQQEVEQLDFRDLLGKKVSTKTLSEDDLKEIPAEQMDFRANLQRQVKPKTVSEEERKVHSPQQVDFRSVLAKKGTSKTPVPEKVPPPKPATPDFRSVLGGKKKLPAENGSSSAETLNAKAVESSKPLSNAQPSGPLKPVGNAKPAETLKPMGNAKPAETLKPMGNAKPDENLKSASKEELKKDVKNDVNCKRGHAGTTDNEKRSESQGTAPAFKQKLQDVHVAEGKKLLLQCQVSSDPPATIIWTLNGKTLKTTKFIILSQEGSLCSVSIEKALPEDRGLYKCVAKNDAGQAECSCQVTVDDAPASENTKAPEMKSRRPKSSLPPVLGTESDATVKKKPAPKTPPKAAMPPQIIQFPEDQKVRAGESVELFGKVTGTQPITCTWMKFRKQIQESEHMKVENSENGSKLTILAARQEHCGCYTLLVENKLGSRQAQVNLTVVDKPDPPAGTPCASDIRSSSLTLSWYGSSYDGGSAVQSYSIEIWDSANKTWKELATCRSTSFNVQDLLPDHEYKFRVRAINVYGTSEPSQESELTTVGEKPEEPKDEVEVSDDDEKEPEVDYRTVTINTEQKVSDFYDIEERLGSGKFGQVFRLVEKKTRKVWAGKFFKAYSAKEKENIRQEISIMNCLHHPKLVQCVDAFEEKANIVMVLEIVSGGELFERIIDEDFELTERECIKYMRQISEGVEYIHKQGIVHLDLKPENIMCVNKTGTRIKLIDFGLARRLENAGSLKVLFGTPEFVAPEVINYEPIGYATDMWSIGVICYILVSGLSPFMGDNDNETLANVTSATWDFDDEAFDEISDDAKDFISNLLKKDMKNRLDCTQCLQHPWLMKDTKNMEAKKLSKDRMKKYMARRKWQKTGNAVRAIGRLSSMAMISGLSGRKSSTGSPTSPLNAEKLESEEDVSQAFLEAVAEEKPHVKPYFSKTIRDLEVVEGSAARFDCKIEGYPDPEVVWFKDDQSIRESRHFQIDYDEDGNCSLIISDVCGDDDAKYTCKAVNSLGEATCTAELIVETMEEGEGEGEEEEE
T5 sequence (Q04759 whole entry): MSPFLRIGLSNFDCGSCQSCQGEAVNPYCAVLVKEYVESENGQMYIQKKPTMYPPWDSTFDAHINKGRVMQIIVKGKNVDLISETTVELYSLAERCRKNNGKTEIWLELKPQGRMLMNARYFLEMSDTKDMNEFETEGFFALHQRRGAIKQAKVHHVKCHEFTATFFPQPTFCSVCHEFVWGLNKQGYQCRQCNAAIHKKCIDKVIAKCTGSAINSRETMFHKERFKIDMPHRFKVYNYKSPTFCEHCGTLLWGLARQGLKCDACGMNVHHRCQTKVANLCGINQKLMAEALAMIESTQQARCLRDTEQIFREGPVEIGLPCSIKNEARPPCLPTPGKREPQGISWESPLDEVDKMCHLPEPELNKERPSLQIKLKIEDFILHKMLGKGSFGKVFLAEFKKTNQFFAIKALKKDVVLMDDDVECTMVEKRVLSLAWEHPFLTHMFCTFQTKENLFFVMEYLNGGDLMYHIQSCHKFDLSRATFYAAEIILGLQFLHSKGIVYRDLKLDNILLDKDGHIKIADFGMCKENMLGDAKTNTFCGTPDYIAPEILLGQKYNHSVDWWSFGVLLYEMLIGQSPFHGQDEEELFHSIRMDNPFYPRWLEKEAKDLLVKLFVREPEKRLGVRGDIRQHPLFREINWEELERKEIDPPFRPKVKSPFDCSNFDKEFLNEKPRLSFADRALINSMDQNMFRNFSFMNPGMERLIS

CNC(=O)c1ccc2c(c1)C(=O)c1ccc(Nc3ccc(F)c(NC(=O)C4CC4)c3)cc1CC2 [Compound 2015]
remaining activity at 0.2 µM (340 wild-type kinases [1]; 0.2 µM 2015, read-out: EPHB2 residual activity): 97.4%
remaining activity at 1 µM (340 wild-type kinases [1]; 1 µM 2015, read-out: EPHB2 residual activity): 98.5%
remaining activity at 0.2 µM (340 wild-type kinases [1]; EPHB2, 0.2 µM, read-out: residual activity): 97.4%
remaining activity at 1 µM (340 wild-type kinases [1]; EPHB2, 1 µM, read-out: residual activity): 98.5%
remaining activity at 0.2 µM (340 wild-type kinases [2]; 0.2 µM 2015, read-out: CLK3 residual activity): 138%
remaining activity at 1 µM (340 wild-type kinases [2]; 1 µM 2015, read-out: CLK3 residual activity): 133%
remaining activity at 0.2 µM (340 wild-type kinases [2]; CLK3, 0.2 µM, read-out: residual activity): 138%
remaining activity at 1 µM (340 wild-type kinases [2]; CLK3, 1 µM, read-out: residual activity): 133%
remaining activity at 0.2 µM (340 wild-type kinases [3]; 0.2 µM 2015, read-out: CDK6/CycD1 residual activity): 97.6%
remaining activity at 0.2 µM (340 wild-type kinases [3]; 0.2 µM 2015, read-out: CDK6/CycD2 residual activity): 88.8%
remaining activity at 0.2 µM (340 wild-type kinases [3]; 0.2 µM 2015, read-out: CDK6/CycD3 residual activity): 93.3%
remaining activity at 1 µM (340 wild-type kinases [3]; 1 µM 2015, read-out: CDK6/CycD1 residual activity): 93.4%
remaining activity at 1 µM (340 wild-type kinases [3]; 1 µM 2015, read-out: CDK6/CycD2 residual activity): 91.1%
remaining activity at 1 µM (340 wild-type kinases [3]; 1 µM 2015, read-out: CDK6/CycD3 residual activity): 86.4%
remaining activity at 0.2 µM (340 wild-type kinases [3]; CDK6/CycD1, 0.2 µM, read-out: residual activity): 97.6%
remaining activity at 1 µM (340 wild-type kinases [3]; CDK6/CycD1, 1 µM, read-out: residual activity): 93.4%
remaining activity at 0.2 µM (340 wild-type kinases [3]; CDK6/CycD2, 0.2 µM, read-out: residual activity): 88.8%
remaining activity at 1 µM (340 wild-type kinases [3]; CDK6/CycD2, 1 µM, read-out: residual activity): 91.1%
remaining activity at 0.2 µM (340 wild-type kinases [3]; CDK6/CycD3, 0.2 µM, read-out: residual activity): 93.3%
remaining activity at 1 µM (340 wild-type kinases [3]; CDK6/CycD3, 1 µM, read-out: residual activity): 86.4%
remaining activity at 0.2 µM (340 wild-type kinases [4]; 0.2 µM 2015, read-out: CDK5/p25NCK residual activity): 110%
remaining activity at 0.2 µM (340 wild-type kinases [4]; 0.2 µM 2015, read-out: CDK5/p35NCK residual activity): 114%
remaining activity at 1 µM (340 wild-type kinases [4]; 1 µM 2015, read-out: CDK5/p25NCK residual activity): 100%
remaining activity at 1 µM (340 wild-type kinases [4]; 1 µM 2015, read-out: CDK5/p35NCK residual activity): 103%
remaining activity at 0.2 µM (340 wild-type kinases [4]; CDK5/p25NCK, 0.2 µM, read-out: residual activity): 110%
remaining activity at 1 µM (340 wild-type kinases [4]; CDK5/p25NCK, 1 µM, read-out: residual activity): 100%
remaining activity at 0.2 µM (340 wild-type kinases [4]; CDK5/p35NCK, 0.2 µM, read-out: residual activity): 114%
remaining activity at 1 µM (340 wild-type kinases [4]; CDK5/p35NCK, 1 µM, read-out: residual activity): 103%
remaining activity at 0.2 µM (340 wild-type kinases [5]; 0.2 µM 2015, read-out: PKCtheta residual activity): 108%
remaining activity at 1 µM (340 wild-type kinases [5]; 1 µM 2015, read-out: PKCtheta residual activity): 89.1%
remaining activity at 0.2 µM (340 wild-type kinases [5]; PKCtheta, 0.2 µM, read-out: residual activity): 108%
remaining activity at 1 µM (340 wild-type kinases [5]; PKCtheta, 1 µM, read-out: residual activity): 89%
remaining activity at 0.2 µM (340 wild-type kinases [6]; 0.2 µM 2015, read-out: MYLK residual activity): 109%
remaining activity at 1 µM (340 wild-type kinases [6]; 1 µM 2015, read-out: MYLK residual activity): 97.7%
remaining activity at 0.2 µM (340 wild-type kinases [6]; MYLK, 0.2 µM, read-out: residual activity): 109%
remaining activity at 1 µM (340 wild-type kinases [6]; MYLK, 1 µM, read-out: residual activity): 97.7%
remaining activity at 0.2 µM (340 wild-type kinases [7]; 0.2 µM 2015, read-out: WNK2 residual activity): 107%
remaining activity at 1 µM (340 wild-type kinases [7]; 1 µM 2015, read-out: WNK2 residual activity): 111%
remaining activity at 0.2 µM (340 wild-type kinases [7]; WNK2, 0.2 µM, read-out: residual activity): 107%
remaining activity at 1 µM (340 wild-type kinases [7]; WNK2, 1 µM, read-out: residual activity): 111%
